Laboratory results as given in patent US8076487B2, “Pyridone derivative and herbicide” (Kumiai Chemical Industry Co., Ltd., priority 2006, dated 2011).

What was measured:
Format in all cases: in vivo
[1] = tested on: green foxtail (Setaria viridis (L.) P. Beauv.); experiment: Test Example 2: herbicidal effect by soil application to upland field; settings: soil surface spray, upland field soil, 1,000 g active ingredient per hectare, 21st day after application
Outline: (§1)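 Soil-applied wettable powder, 1,000 g a.i./ha, sprayed after sowing onto covered field soil. Effect rated on a standard scale 21 days later in a greenhouse.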

[2] = tested on: velvetleaf (Abutilon theophrasti medicus); experiment: as above; settings: soil surface spray, upland field soil, 1,000 g active ingredient per hectare, 21st day after application
Outline: as §1

[3] = tested on: barnyardgrass (Echinochloa crus-galli (L.) P. Beauv. var. crus-galli); experiment: as above; settings: soil surface spray, upland field soil, 1,000 g active ingredient per hectare, 21st day after application
Outline: as §1

[4] = tested on: slender amaranth (Amaranthus viridis L.); experiment: as above; settings: soil surface spray, upland field soil, 1,000 g active ingredient per hectare, 21st day after application
Outline: as §1

[5] = tested on: green foxtail (Setaria viridis (L.) P. Beauv.); experiment: Test Example 3: herbicidal effect by application to upland field (foliage treatment); settings: foliage treatment, 1,000 g active ingredient per 1 hectare, 14th day after application, greenhouse
Outline: (§2)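 Sow in field soil; grow 2 weeks in greenhouse; spray foliage from above with wettable-powder dilution (1,000 g AI/ha, 1,000 L/ha); return to greenhouse; score effect at day 14 against a standard.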

[6] = tested on: velvetleaf (Abutilon theophrasti medicus); experiment: as above; settings: foliage treatment, 1,000 g active ingredient per 1 hectare, 14th day after application, greenhouse
Outline: as §2

[7] = tested on: barnyardgrass (Echinochloa crus-galli (L.) P. Beauv. var. crus-galli); experiment: as above; settings: foliage treatment, 1,000 g active ingredient per 1 hectare, 14th day after application, greenhouse
Outline: as §2

[8] = tested on: slender amaranth (Amaranthus viridis L.); experiment: as above; settings: foliage treatment, 1,000 g active ingredient per 1 hectare, 14th day after application, greenhouse
Outline: as §2

[9] = tested on: early watergrass (Echinochloa oryzicola Vasing); experiment: Test Example 1: herbicidal effect by soil application to paddy field; settings: paddy field soil application; active ingredient 1,000 g per 1 hectare; wettable powder added dropwise to water surface the day after sowing; examined on the 21st day after application
Outline: (§3)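 Plants were sown in flooded (3 cm) paddy soil and evaluated for herbicidal effect 21 days after soil application in a greenhouse.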

[10] = tested on: heartshape false pickerelweed (Monochoria vaginalis (Burm.f.) C.Presl); experiment: as above; settings: paddy field soil application; active ingredient 1,000 g per 1 hectare; wettable powder added dropwise to water surface the day after sowing; examined on the 21st day after application
Outline: as §3

[11] = tested on: Japanese bulrush (Scirpus juncoides Roxb.); experiment: as above; settings: paddy field soil application; active ingredient 1,000 g per 1 hectare; wettable powder added dropwise to water surface the day after sowing; examined on the 21st day after application
Outline: as §3

Compound	herbicidal effect (index), Green Foxtail [1]	herbicidal effect (index), Velvetleaf [2]	herbicidal effect (index), Barnyardgrass [3]	herbicidal effect (index), Slender Amaranth [4]	herbicidal effect, Green Foxtail [5]	herbicidal effect, Velvetleaf [6]	herbicidal effect, Barnyardgrass [7]	herbicidal effect, Slender Amaranth [8]	herbicidal effect, Echinochloa oryzicola Vasing [9]	herbicidal effect, Monochoria vaginalis (Burm. f.) C. Presl [10]	herbicidal effect, Scirpus juncoides Roxb. [11]
CCCCCCCC(=O)Oc1c(C(=O)c2ccc(C(F)(F)F)n(CC3CCCO3)c2=O)cnn1C (centres unmarked) [IV-130]	4 (70 to less than 90% of herbicidal effect and crop phytotoxicity)	5 (90% or more of herbicidal effect and crop phytotoxicity)	4 (70 to less than 90% of herbicidal effect and crop phytotoxicity)	5 (90% or more of herbicidal effect and crop phytotoxicity)	4 (70 to less than 90% of herbicidal effect and crop phytotoxicity)	4 (70 to less than 90% of herbicidal effect and crop phytotoxicity)	5 (90% or more of herbicidal effect and crop phytotoxicity)	5 (90% or more of herbicidal effect and crop phytotoxicity)	5 (90% or more of herbicidal effect and crop phytotoxicity)	5 (90% or more of herbicidal effect and crop phytotoxicity)	5 (90% or more of herbicidal effect and crop phytotoxicity)
CCCS(=O)(=O)Oc1c(C(=O)c2ccc(C(F)(F)F)n(CC3CCCO3)c2=O)cnn1C (centres unmarked) [IV-140]	5 (90% or more of herbicidal effect and crop phytotoxicity)	5 (90% or more of herbicidal effect and crop phytotoxicity)	5 (90% or more of herbicidal effect and crop phytotoxicity)	5 (90% or more of herbicidal effect and crop phytotoxicity)	3 (50 to less than 70% of herbicidal effect and crop phytotoxicity)	5 (90% or more of herbicidal effect and crop phytotoxicity)	5 (90% or more of herbicidal effect and crop phytotoxicity)	5 (90% or more of herbicidal effect and crop phytotoxicity)	5 (90% or more of herbicidal effect and crop phytotoxicity)	5 (90% or more of herbicidal effect and crop phytotoxicity)	5 (90% or more of herbicidal effect and crop phytotoxicity)
Cn1ncc(C(=O)c2ccc(C(F)(F)F)n(CC3CCOC3)c2=O)c1O (centres unmarked) [IV-143]	5 (90% or more of herbicidal effect and crop phytotoxicity)	5 (90% or more of herbicidal effect and crop phytotoxicity)	5 (90% or more of herbicidal effect and crop phytotoxicity)	5 (90% or more of herbicidal effect and crop phytotoxicity)	5 (90% or more of herbicidal effect and crop phytotoxicity)	5 (90% or more of herbicidal effect and crop phytotoxicity)	5 (90% or more of herbicidal effect and crop phytotoxicity)	5 (90% or more of herbicidal effect and crop phytotoxicity)	5 (90% or more of herbicidal effect and crop phytotoxicity)	5 (90% or more of herbicidal effect and crop phytotoxicity)	5 (90% or more of herbicidal effect and crop phytotoxicity)
CNn1c(C(F)(F)F)ccc(C(=O)c2cnn(C)c2O)c1=O [IV-146]	5 (90% or more of herbicidal effect and crop phytotoxicity)	5 (90% or more of herbicidal effect and crop phytotoxicity)	5 (90% or more of herbicidal effect and crop phytotoxicity)	5 (90% or more of herbicidal effect and crop phytotoxicity)	5 (90% or more of herbicidal effect and crop phytotoxicity)	5 (90% or more of herbicidal effect and crop phytotoxicity)	5 (90% or more of herbicidal effect and crop phytotoxicity)	5 (90% or more of herbicidal effect and crop phytotoxicity)	5 (90% or more of herbicidal effect and crop phytotoxicity)	5 (90% or more of herbicidal effect and crop phytotoxicity)	5 (90% or more of herbicidal effect and crop phytotoxicity)
CCCNn1c(C(F)(F)F)ccc(C(=O)c2cnn(C)c2O)c1=O [IV-148]	5 (90% or more of herbicidal effect and crop phytotoxicity)	5 (90% or more of herbicidal effect and crop phytotoxicity)	5 (90% or more of herbicidal effect and crop phytotoxicity)	5 (90% or more of herbicidal effect and crop phytotoxicity)	5 (90% or more of herbicidal effect and crop phytotoxicity)	5 (90% or more of herbicidal effect and crop phytotoxicity)	5 (90% or more of herbicidal effect and crop phytotoxicity)	5 (90% or more of herbicidal effect and crop phytotoxicity)	5 (90% or more of herbicidal effect and crop phytotoxicity)	5 (90% or more of herbicidal effect and crop phytotoxicity)	5 (90% or more of herbicidal effect and crop phytotoxicity)
CC(=O)Oc1c(C(=O)c2ccc(C(F)(F)F)n(C)c2=O)cnn1C [IV-174]	5 (90% or more of herbicidal effect and crop phytotoxicity)	5 (90% or more of herbicidal effect and crop phytotoxicity)	5 (90% or more of herbicidal effect and crop phytotoxicity)	5 (90% or more of herbicidal effect and crop phytotoxicity)	5 (90% or more of herbicidal effect and crop phytotoxicity)	5 (90% or more of herbicidal effect and crop phytotoxicity)	5 (90% or more of herbicidal effect and crop phytotoxicity)	5 (90% or more of herbicidal effect and crop phytotoxicity)	5 (90% or more of herbicidal effect and crop phytotoxicity)	5 (90% or more of herbicidal effect and crop phytotoxicity)	5 (90% or more of herbicidal effect and crop phytotoxicity)
Cn1ncc(C(=O)c2ccc(C(F)(F)F)n(C)c2=O)c1OCc1ccccc1 [IV-190]	5 (90% or more of herbicidal effect and crop phytotoxicity)	5 (90% or more of herbicidal effect and crop phytotoxicity)	5 (90% or more of herbicidal effect and crop phytotoxicity)	5 (90% or more of herbicidal effect and crop phytotoxicity)	4 (70 to less than 90% of herbicidal effect and crop phytotoxicity)	5 (90% or more of herbicidal effect and crop phytotoxicity)	5 (90% or more of herbicidal effect and crop phytotoxicity)	5 (90% or more of herbicidal effect and crop phytotoxicity)	5 (90% or more of herbicidal effect and crop phytotoxicity)	5 (90% or more of herbicidal effect and crop phytotoxicity)	5 (90% or more of herbicidal effect and crop phytotoxicity)
